Measured values taken from the METLIN SMRT retention time set (Domingo-Almenara et al. 2019).

Assay: gradient 5% acetonitrile 3 min, to 50% in 2 min, to 85% in 15 min, held 3 min, 100 µL/min
Settings: column: Zorbax Extend-C18 2.1 x 50 mm; eluents: water / acetonitrile, 0.1% formic acid
Procedure, shortened: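 Mixtures of ~100 pure standards were chromatographed on a Zorbax Extend-C18 column (2.1 × 50 mm, 1.8 μm) at 100 μL/min using water and acetonitrile, each with 0.1% formic acid. Detection used a quadrupole time-of-flight mass spectrometer in positive and negative ionization mode, and data collection spanned 3 months. Retention time was obtained from adduct peaks picked computationally and each checked manually.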

| RP-LC retention time | SMILES |
| --- | --- |
| 898 s | Cc1cccc(-c2noc(-c3nn(-c4ccccc4)ccc3=O)n2)c1 |
| 882 s | Cc1noc(-c2nn(C)c3c2CN(C(=O)c2cc4c(s2)CCCC4)CC3)n1 |
| 1080 s | Cc1ccc(Nc2c(-c3ccc(C(=O)O)cc3)nc3cnccn23)c(Br)c1 |
| 708 s | Cc1ccc(-c2nc3ccc(Cl)cn3c2Nc2ccc3c(c2)OCO3)cc1 |
| 1050 s | CC(C)CC1OC(=O)C2=CCCCC21 (configuration not stated) |
| 611 s | O=C(c1ccc2c(c1)OCO2)N1CCN(Cc2nc(C3CC3)cs2)CC1 |
| 638 s | COC(=O)c1cc2c(=O)n(Cc3ccccn3)ccc2nc1C |
| 1060 s | CC(=O)N1CCN(c2nc(CC(C)C)c3c(c2C#N)CC(C)(C)OC3)CC1 |
| 648 s | COc1ccccc1/C=C/c1nc(C#N)c(NCCN(C)C)o1 |
| 551 s | CCCCN1CCN(C(=O)c2cc(NC(=O)C3CCC3)cc3nc(C)ccc23)CC1 |
| 1150 s | COc1ccc(OC)c(C(C)NC(=O)C2CCCN(c3nccnc3Sc3ccc(C)cc3)C2)c1 (configuration not stated) |
| 740 s | COc1ccc(-n2nc(N3CCCC(C(=O)NCc4ccco4)C3)ccc2=O)cc1 (configuration not stated) |
| 957 s | COc1ccc(CNC(=O)Cn2nc3c(Oc4ccccc4C)nccn3c2=O)cc1 |
| 828 s | CCOC(=O)c1ccc(NC(=O)CSc2cc(N3CCCC3)ncn2)cc1 |
| 740 s | Cc1ccc2nc(Cl)cc(=O)n2c1 |
| 1010 s | COCCn1cc(C(=O)NC2CCCCCC2)c2nn(-c3ccccc3)c(=O)c-2c1 |
| 706 s | COc1cccc(OC)c1C(=O)Nc1ccc2c(c1)Sc1ncccc1C(=O)N2C |
| 898 s | Cc1ccccc1S(=O)(=O)N1CCC(C(=O)NCc2csc(-c3cccs3)n2)CC1 |

| RP-LC retention time | SMILES |
| --- | --- |
| 922 s | Cc1ccc(C)c(C(=O)Nc2ccc3c(c2)Sc2ncccc2C(=O)N3C(C)C)c1 |
| 718 s | CN1CCCc2cc(C(CNC(=O)C(=O)Nc3ccc4c(c3)OCCO4)N3CCCC3)ccc21 (configuration not stated) |
| 729 s | CCN1CCCn2cc(S(=O)(=O)Nc3ccc(C)cc3F)cc2C1=O |
| 699 s | COc1ccccc1N(CN1CCCC1=O)C(=O)COc1ccccc1 |
| 741 s | Cc1ccc(NC(=O)C2CC(=O)N(c3ccc4oc(C)nc4c3)C2)c(F)c1 (configuration not stated) |
| 1030 s | COc1ccc(N2CC(c3nc(-c4ccc(C(F)(F)F)cc4)no3)CC2=O)c(OC)c1 (configuration not stated) |
| 674 s | O=C(C1CCN(S(=O)(=O)N2CCOCC2)CC1)N1CCC(c2nc(C3CCOCC3)no2)CC1 |
| 573 s | CCn1cc(CN2C[C@@H](COC)[C@H](c3ccccn3)C2)c(C)n1 |
| 1270 s | Cc1ccc(/C=C/c2nc(-c3cccc(-c4ccnn4C)c3)no2)cc1 |
| 708 s | O=C(NC1CCN(c2cc(-c3ccccc3)[nH]n2)C1)c1cc(F)ccc1Cl (configuration not stated) |
| 895 s | COC1CCC12CCN(C(=O)c1ccc(C)s1)CC2 (configuration not stated) |
| 704 s | CCC1CN2C=Nc3oc(C)c(C(=O)Nc4ccc(F)c(Cl)c4)c3C2=N1 (configuration not stated) |
| 629 s | Clc1cccc(-c2nc(Cn3ccnc3)no2)c1 |
| 581 s | COCCN1C(=O)Cc2ccccc2C1C(=O)N1CCN(c2ccccn2)CC1 (configuration not stated) |
| 847 s | COc1ccc(N2CC(c3noc(-c4cccc(F)c4)n3)CC2=O)cc1OC (configuration not stated) |
| 680 s | COCCn1ccc2nc(C)c(C(=O)NCc3ccc(C)o3)cc2c1=O |
| 774 s | O=C(c1cn(-c2cc(N3CCSCC3)ncn2)cn1)N1CCSCC1 |
| 812 s | O=C([C@@H]1C[C@H](F)CN1S(=O)(=O)c1ccc(F)cc1F)N1CCCCC1 |

| SMILES | RP-LC retention time |
| --- | --- |
| COc1ccc2c(c1)C1(CCN(S(=O)(=O)c3ccccc3)C1)C(=O)N2C (configuration not stated) | 882 s |
